Laboratory results: patent US8709379B2, “Liposomal nanoparticles and other formulations of fenretinide for use in therapy and drug delivery” (Scitech Development, LLC, priority 2006, dated 2014)
In brackets after ≈: the same amount, converted by molar mass. Several values for one entry are separate records, joined by “and”; a condition that tells them apart may be missing. Equal entries are not always repeated. Where two headings read alike, the source gives them in different places.

Legend:
[1] = tested on: EpiDerm-606X (epidermal model, enhanced barrier function); conditions: human, 0.1 %
Experimental: (§1) Using an analytical method measuring HPR by HPLC, and extraction procedures that yield >95% recovery of HPR from skin homogenates, EpiDerm Enhanced Barrier Function and EpiDerm Full-thickness skin specimens were removed from the Franz cells at the scheduled time, washed and halved as described below, and then homogenized and extracted in acetonitrile supplemented with 4 μg/mL BHT, 0.1% ethanol for quantitation of HPR by HPLC. Receiver medium specimens were collected and processed for HPR analysis by HPLC as described below. Injection volumes were 100 μl for extracts of skin and receiver medium and 50 μl for calibration standards. HPR quantitation was by back calculation to a standard curve constructed from clinical grade HPR received from the NCI. […] For the second permeation study of Retin-A, PD05057 and HPR formulation C5 2005 using enhanced barrier function epidermal models, ATRA in the extracts of treated skin was quantified against an ATRA standard curve and HPR against an HPR standard curve.
(§2) 18 reconstituted EpiDerm-Full Thickness specimens (EFT-306-AFAB-PRF, lot #7024-306-AFAB-PR) and 18 reconstituted EpiDerm Skin Model Enhanced Barrier Function (EPI-606-X-AFAB-PRF, lot #5093ofs) were received in good condition from Mattek Inc via overnight courier. EpiDerm-FT was maintained in culture by specialized medium changes every other day according to the manufacturer's instructions. EpiDerm-606X was stored refrigerated until use. EpiDerm-FT medium was free of phenol red, antibiotic and anti-fungal additives (EFT-300-MM-ASY-AFAB-PRF, lot #110405aab and EPI-100-X), so as to avoid creating artifactual toxicity or proinflammatory response. The particular skin specimens were all reconstituted with normal human epidermal keratinocytes and, for EpiDerm-FT, fibroblasts as well from a single donor foreskin.
(§3) Three topical products were tested in the in vitro skin model: Retin-A 0.1% (lot #5BM258, expiry 02/07), HPR in topical formulation C5 and another HPR formulation (PD05057). These drugs were tested blindly using the following codes: “A” for Retin-A, “B” for the C5 formulation of HPR, and “D” for the HPR formulation PD05057. Receiver medium was made by mixing pre-warmed, 37° C. EFT-306 medium 5:1 with human serum albumin (Sigma A6909, lot #055K8904, then lot #095K8906) to its physiological concentration of 50 mg/mL. To prevent oxidation of HPR during the collection period, BHT was added to the receiver medium to a final concentration of 10 μg/mL from a 40 mg/mL solution of BHT-NF (Spectrum Chemicals, B1196, lot #UM0659) in Ethanol USP (NDC 11098-503-05, lot #121310). Each sterile amber Franz cells was pre-warmed to 37° C. using a circulating water bath, the bottom chamber filled completely with receiver medium (˜10 ml), and then reconstituted skin specimens were removed from the cell culture wells and spread across the orifice epidermis upward, and clamped into place with a sterile top chamber. Pre-weighed aliquots of a target dose of 1.7 mg Retin-A prepared using an analytical balance were applied to the epidermal face, disbursed and messaged with the aid of the rubber tip of 1 ml BD tuberculin syringes and the start time recorded.

[2] = tested on: EpiDerm-FT (full thickness living skin model)
Experimental: as §1, §2, §3

[3] = Delivered dose and retinoid flux, EpiDerm-FT in Franz cells; conditions: human, 1.7 mg Retin-A cream
Experimental: as §1, §2, §3

[4] = Clinical trial and pharmacokinetic study of oral HPR (corn oil soft gel capsules) in adult solid tumor patients; type: in vivo, human; conditions: for Cmax: po
Experimental: In an early clinical trial and pharmacokinetic study of oral HPR (corn oil, soft gel capsules) administered qdx7 to adult solid tumor patients at Wayne State University, dose escalation proceeded to 1600 mg/m^2 TID per day for seven days (˜90 capsules/day for one week).

[5] = Maximum (saturation) solubility of HPR in physiological aqueous systems with ethanol or human plasma proteins; type: physicochemical; conditions: 23 °C, kinetic from dmso stock, PBS pH 7.4
[6] = cited from earlier work
[7] = Bioavailability of oral HPR in corn oil versus IV F23 in Sprague-Dawley rats; type: in vivo; conditions: plasma, rat, 1200 mg/m^2 in corn oil by gavage vs 444 mg/m^2 IV F23, AUC0-30, read-out: bioavailability of orally dosed HPR
Experimental: The appropriate doses of injectable HPR administered IV to achieve desired blood or tissue levels can be determined by those skilled in the art, using data from related studies of oral and intravenous HPR formulations in healthy rats. For example, the present inventors administered a single, non-toxic bolus dose of 444 mg/m^2 of the F23 formulation (described herein) that was prepared at a strength of 50 mg/mL HPR, via femoral vein catheters to a group of seven dual catheterized Sprague-Dawley rats. A second group of rats received a single, non-toxic dose of 1200 mg/m^2 HPR in corn oil via oral gavage after an overnight fast which was maintained up until 2 hours after dosing. […]
Mean blood plasma concentration-time curves of measured HPR following oral and IV administration are shown in (FIG. 2). From such results, the bioavailability of the oral HPR can be calculated, as an accepted measure of the proportion of orally administered drug that entered systemic circulation. […] Bioavailability of oral HPR administered in corn oil was calculated by comparing the AUC values achieved by oral and intravenous dosing using the equation:
[formula] […] Assuming this to be similar to bioavailability of oral HPR in humans, which cannot be measured directly until human patients are actually dosed with intravenous HPR, it is possible to estimate suitable doses of HPR lipid nanoparticles for clinical use.

human tumor cell lines = conditions: for 72 hours in vitro; cited from earlier work
SCLC patients = conditions: cited from earlier work
rodents = conditions: in vivo; cited from earlier work
[8] = tested on: isolated epidermis (cadaveric); assay: Permeation into isolated cadaveric epidermis in Franz cells; type: in vitro ADME; conditions: receiver medium PBS with ethanol to 20 vol %
Experimental: Epidermal drug levels achieved by 3 hours were stable to 24 hours. The C5 formulation reached 11. μg/mg after single application. The products were tested as 0.1% strength creams. Thus, by increasing strength of the product to 0.5% and applying twice daily, it is possible to achieve target content levels in the skin. Moreover, as discussed below, the C5 formulation may be advantageous in reaching this level in epidermis alone.

[9] = Maximum (saturation) solubility of HPR in physiological aqueous systems with ethanol or human plasma proteins; type: physicochemical
Experimental: Although the compound is readily soluble in ethanol, this solvent solubility was not maintained when an ethanol solution of HPR was mixed into aqueous buffered systems, like physiological solutions, and in fact, even when the ethanol content of an aqueous solution of HPR was as high as 20%, the HPR solubility only reached approximately 1-2 μg/ml.
Purified human proteins were obtained from Sigma Chemical Company and dissolved in receiver medium, which was the same as the specialized medium from Mattek Inc used to maintain reconstituted skin systems or assay enhanced barrier permeability function. The individual proteins were dissolved to their respective plasma concentrations: high-density lipoprotein to 0.2 mg/mL, retinol binding protein to 0.05 mg/mL, serum albumin to 50 mg/mL (A6909, lot #055K8904), and acid α1-glycoprotein to 1 mg/mL (50646, lot #448248/1). HPR dissolved to 100 mg/mL in absolute ethanol supplemented with 4 mg/mL BHT was added to each protein solution to final theoretical concentration of 50 μg/mL and mixed by vortexing, the insoluble drug removed by centrifugation (12,000×g, 5 min, 23° C.), and the supernatant analyzed by HPLC to quantify HPR concentration.
A study of the HPR solubilizing properties of physiological concentrations of four human drug-binding plasma proteins that were expected to bind HPR under physiological conditions was conducted in receiver medium: high-density lipoprotein (HDL), retinol binding protein (RBP), albumin (ALB), and acid α-1-glycoprotein (AGP). Although certainly not the highest affinity binding, ALB solubilized more HPR per mL of receiver medium than any other plasma protein tested, driven primarily by its much higher physiological concentration than the other proteins. The solubilizing capacity of ALB was 7.5 μg HPR per ml of medium, which was 5-fold higher than that of 20 vol % ethanol. Using physiological concentrations of ALB in the 10 ml receiving medium chamber created a sink condition capable of binding 75 μg of HPR. Since the test surface area of the Franz cell was 1 cm^2 and the testing was conducted over 5 hours, this receiver medium was capable of supporting an average flux rate of 15 μg/cm^2/hour. It was concluded that this receiving medium should provide true sink conditions, considering the applied test dose of API from each formulation was just 1.7 μg/cm^2.

[10] = rat, 24 hours after dosing; cited from earlier work
[11] = tested on: EpiDerm-FT (full thickness living skin model); assay: Delivered dose and retinoid flux, EpiDerm-FT in Franz cells; conditions: EpiDerm-FT, collection period up to 5 hours
Experimental: as §1, §2, §3

SMILES: CC1=C(/C=C/C(C)=C/C=C/C(C)=C/C(=O)O)C(C)(C)CCC1 [ATRA, all-trans-retinoic acid]
- retinoid in Cells (epidermis) ([1]; 1 h): 0.209 µg
- retinoid in receiver Medium ([1]; 1 h): 0 µg
- retinoid in Cells (epidermis) ([1]; 2 h): 0.106 µg
- retinoid in receiver Medium ([1]; 2 h): 0 µg
- retinoid in Cells (epidermis) ([1]; 3 h): 0.046 µg
- retinoid in receiver Medium ([1]; 3 h): 0 µg
- retinoid in Cells (epidermis) ([1]; 5 h): 0.032 µg
- retinoid in receiver Medium ([1]; 5 h): 0 µg
- detection in receiver medium [2]: No ATRA was detected
- retinoid in Cells (skin specimen) ([2]; human, 0.2 h, 0.1 %): 0.031 µg
- retinoid in receiver Medium ([2]; human, 0.2 h, 0.1 %): 0 µg
- retinoid in Cells (skin specimen) ([2]; human, 2.1 h, 0.1 %): 0.042 µg
- retinoid in receiver Medium ([2]; human, 2.1 h, 0.1 %): 0 µg
- retinoid in Cells (skin specimen) ([2]; human, 3 h, 0.1 %): 0.056 µg
- retinoid in receiver Medium ([2]; human, 3 h, 0.1 %): 0 µg
- share of applied dose in skin specimen ([2]; human, 3 h, 0.1 %): 2.9%
- retinoid in Cells (skin specimen) ([2]; human, 5 h, 0.1 %): 0.035 µg
- retinoid in receiver Medium ([2]; human, 5 h, 0.1 %): 0 µg
- half-life at 0.1 % [3]: > 2 h

SMILES: CC1=C(/C=C/C(C)=C/C=C/C(C)=C/C(=O)Nc2ccc(O)cc2)C(C)(C)CCC1 [HPR, N-4-hydroxyphenylretinamide]
- Cmax ([4]; human, plasma, after the first dose): 1000 ng/mL to 1300 ng/mL and 2.6 µM to 3.3 µM
- Cmax ([4]; human, plasma, after the last dose): 2800 ng/mL to 4600 ng/mL and 7 µM to 12 µM
- half-life ([4]; human, plasma, oral HPR, patients, read-out: terminal phase half-life): 8 to 14 h
- ceiling of plasma HPR level ([4]; oral, regardless of schedule or dose above 1200 mg/m^2 BID): ≤ 5 µg/mL
- solubility ([5]; human, PBS with albumin 50 g/L, pH 7.4, plasma or biological fluid, albumin 50 g/L): 7 to 8 µg/mL (≈ 17.9 to 20.4 µM)
- solubility ([5]; human, PBS with high density lipoprotein 0.2 g/L, pH 7.4, plasma or biological fluid, high density lipoprotein 0.2 g/L): 1.5 to 3 µg/mL (≈ 3.83 to 7.66 µM)
- solubility ([5]; human, PBS with retinol binding protein 0.05 g/L, pH 7.4, plasma or biological fluid, retinol binding protein 0.05 g/L): < 1 µg/mL
- solubility ([5]; human, PBS with α1-acid-glycoprotein 1 g/L, pH 7.4, plasma or biological fluid, α1-acid-glycoprotein 1 g/L): 1 to 2 µg/mL (≈ 2.55 to 5.11 µM)
- solubility ([5]; phosphate buffered saline, pH 7.4, aqueous buffer, additive none): < 1 µg/mL
- plasma level of HPR ([6]; oral 25 mg/kg/day for 10 days, 3 hrs after last dose): 80 ng/mL
- plasma level of HPR ([6]; oral 125 mg/kg/day for 10 days, 3 hrs after last dose): 260 ng/mL
- plasma level of HPR ([6]; oral 800 mg/kg/day): 315 ng/mL
- bioavailability [7]: 8%
- minimum HPR exposure level required to inhibit human tumor cell lines by at least 50-90% (human tumor cell lines): 10 µM
- maximum concentration of HPR in blood-plasma (±SD) (SCLC patients; 14 SCLC patients, 3-4 hours after 14th oral dose (twice/day, 7 days), in µM): 7.7±4.4 04
- maximum plasma concentration (SCLC patients; SCLC patients, after final of 14 oral doses of 900 mg/m^2): approximately 7.7 μM
- stable disease, share of advanced SCLC patients (SCLC patients; oral HPR): 30%
- maximum tolerated dose (MTD) (rodents): 651 mg/m^2
- maximum tolerated dose for parenteral HPR (rodents): ~650 mg/m^2 per day
- well tolerated daily dose (rodents): ~600 mg/m^2
- HPR in receiver medium [8]: not detected
- solubility ([9]; PBS with 20% ethanol, 23 °C, pH 7.4, aqueous with cosolvent or surfactant or cyclodextrin, kinetic from dmso stock, PBS pH 7.4, ethanol to 20% of volume, read-out: Maximum HPR Solubility): 1 to 2 µg/mL (≈ 2.55 to 5.11 µM)
- increase of HPR solubility by ethanol ([9]; PBS with 20 vol % ethanol versus physiological saline): 200 fold
- solubility ([9]; phosphate-buffered saline with 20 vol % ethanol, pH 7.4, aqueous with cosolvent or surfactant or cyclodextrin, kinetic from dmso stock, phosphate-buffered saline with ethanol to 20 vol %, read-out: HPR solubility): ~1.3 µg/mL (≈ 3.32 µM)
- solubility ([9]; physiological saline / aqueous systems, saline or isotonic, physiological saline / aqueous systems, read-out: HPR solubility): ~0.005 µg/mL (≈ 0.0128 µM)
- solubilizing capacity of ALB relative to 20 vol % ethanol ([9]; receiver medium with albumin): 5 fold
- accumulation in pancreas over plasma [10]: 15-20 fold

SMILES: CC1=C(/C=C/C(C)=C/C=C/C(C)=C\C(=O)O)C(C)(C)CCC1 [Formulation 13-cis-RA, 13-cis-retinoic acid]
- detection in receiver medium [11]: accumulated in the receiver medium

SMILES: COc1ccc(NC(=O)\C=C(C)/C=C/C=C(C)\C=C\C2=C(C)CCCC2(C)C)cc1 [MPR]
- plasma level of MPR metabolite ([6]; oral HPR 125 mg/kg/day): 60 ng/mL
- plasma level of MPR metabolite ([6]; oral HPR 800 mg/kg/day): 60 ng/mL
